Where “and” joins values, the source holds several entries; their conditions need not be identical. Equal entries are not always repeated.
Assays:
[1] = Example 1 safety and tolerability (adverse events, vital signs, ECG, laboratory); assay type: in vivo, human
Procedure: On Day 1, study drug was initiated at a starting dose of 0.5 ng/kg/min, and dose increases occurred every 30 minutes (+5 minutes) in increments of 0.5 ng/kg/min up to 2.0 ng/kg/min or the individual tolerated dose. If dose-limiting adverse events (e.g., headache, flushing, jaw pain, myalgia, nausea, or vomiting) occurred that could not be tolerated by the subject, or if the subject experienced symptomatic hypotension, then the dose was reduced in a step-wise manner by 0.5 ng/kg/min every 30 minutes (+5 minutes) until a tolerated dose was determined or the infusion was stopped until the symptoms resolved at which point the study drug was reinitiated at a previously tolerated dose. If symptomatic hypotension or a dose-limiting adverse event occurred during administration of iloprost at the starting dose (i.e., 0.5 ng/kg/min), the infusion was reduced to 0.25 ng/kg/min. If the dose of 0.25 ng/kg/min was not tolerated due to symptomatic hypotension or if a dose-limiting adverse event occurred, the study drug was discontinued, and re-initiation of the infusion could have been attempted after the event had resolved or had been treated. Blood pressure and heart rate were monitored 15 minutes (+5 minutes) prior to and after all dose changes. The maximum tolerated dose was maintained for the remaining 6-hour daily period. At the end of the 6-hour infusion period, the dose was stopped. Subjects were to be monitored for up to 1 hour after completion of study drug infusion (i.e., vital signs were obtained 15 minutes [±5 minutes] and 1 hour [±15 minutes] after completion of the infusion).
Vital signs were measured prior to study drug administration and at 15 minutes (±5 minutes) prior to and after all dose changes during the infusion. Additionally, vital signs were monitored at 15 minutes (±5 minutes) and 1 hour (±15 minutes) after completion of the 6-hour infusion.
Safety parameters included adverse events, physical examination findings, vital sign measurements (heart rate and blood pressure), 12-lead electrocardiogram (ECG) findings, and standard clinical laboratory measurements (chemistry and hematology).

[2] = Example 3 solution stability of fully diluted ready-to-use iloprost in IV bags (HPLC); assay type: physicochemical
Procedure: Iloprost 100 μg/mL injection product is administered to patients by IV bag infusion over a period of six hours. The fully diluted ready to use iloprost is prepared in pharmacy cleanroom using sterile preparation standards (USP Chapter <797>) by pharmacy trained and licensed staff. The fully diluted ready to use drug product may be prepared several hours ahead of treatment with storage at ambient conditions or several days ahead of treatment with storage at refrigerated (2-8° C.) conditions. The IV bags are prepared using empty sterile IV bags which are filled with 99 mL of 0.9% NaCl and 1.0 mL of iloprost 100 µg/mL injection product. The bags are then manually mixed gently to provide a uniform solution. […] IV Bag Sample Preparation: Two 50 mL syringes with 18-gauge needles were assembled. 1.0 mL syringe with 18-gauge needle was assembled. Using a 50 mL syringe, 50 mL of 0.9% NaCl was transferred into an empty IV bag (sterile, ICU Medical) using the injection port. Using a second 50 mL syringe, 49 mL of 0.9% NaCl was transferred into the same IV bag using the injection port resulting in 99 mL of solution. Using the 1 ml syringe, 1.0 mL of iloprost 100 μg/mL injection product was transferred into the IV bag using the injection port. The needle was removed and the port was securely closed. The IV bag was gently inverted several times to mix. During inversion, it was occasionally paused to squeeze the injection port area to ensure liquid rinsed into area several times. Sampling Procedure: For sampling, a 3 mL syringe was assembled with an 18-gauge needle. Using a 3 ml syringe, 2 mL of IV bag solution was withdrew through the injection port and 1 mL was transferred to a HPLC vial for neat injection and the other 1 ml was transferred to a back-up HPLC vial. HPLC vials were stored at refrigerated conditions 2-8° C. Sample Storage and Sampling: For each testing conditions (i-iv discussed above), 12 IV bag samples were prepared (6 IV bags for condition ia)-see below for sampling time). For condition i), all 12 IV bags were then placed into 25° C./60% RH stability chamber ensuring each bag is resting on its largest surface area side. After the first time point, the IV bags were removed from the chamber and each IV bag was mixed by inversion several times. Sampling from each IV bag was taken for HPLC analysis. After sampling, the IV bags were placed back into 25° C./60% RH stability chamber ensuring each bag is resting on its largest surface area side, until next sampling time. At each sampling time, the IV bags were removed from the chamber and each IV bag was mixed by inversion several times before samples were removed. For conditions ii) and iii), all 12 IV bags for each testing condition was placed into a 2-8° C. stability chamber ensuring each bag is resting on its largest surface area side. After 5 days have passed for condition ii) or after 8 days have passed for condition iii), the IV bags were removed from the chamber and allowed to equilibrate to room temperature. Each IV bag was mixed by inversion several times. Sampling from each IV bag was taken for HPLC analysis. Then the IV bags were placed in the 25° C./60% RH stability chamber and sampled at certain time points as discussed herein. […]

[3] = Table 8A, IV bag 25° C./60% RH, 2 h
[4] = Table 8A, IV bag 25° C./60% RH, 4 h
[5] = Table 8A, IV bag 25° C./60% RH, 6 h
[6] = Table 8A, IV bag 25° C./60% RH, 8 h
[7] = Table 8A, IV bag 25° C./60% RH, 24 h
[8] = Table 8B, Batch 1, 25° C./60% RH, 8 hr
[9] = Table 8B, Batch 1, 25° C./60% RH, 12 hr
[10] = Table 8B, Batch 1, 25° C./60% RH, 48 hr
[11] = Table 8B, Batch 1, 25° C./60% RH, 96 hr
[12] = Table 8C, Batch 2, 25° C./60% RH, 8 hr
[13] = Table 8C, Batch 2, 25° C./60% RH, 12 hr
[14] = Table 8C, Batch 2, 25° C./60% RH, 48 hr
[15] = Table 8C, Batch 2, 25° C./60% RH, 96 hr
[16] = Table 8D, Batch 1, 5° C. for 5 days
[17] = Table 8D, Batch 1, 5° C. for 5 days, 25° C./60% RH for 8 hr
[18] = Table 8D, Batch 1, 5° C. for 5 days, 25° C./60% RH for 12 hr
[19] = Table 8E, Batch 2, 5° C. for 5 days
[20] = Table 8E, Batch 2, 5° C. for 5 days, 25° C./60% RH for 8 hr
[21] = Table 8E, Batch 2, 5° C. for 5 days, 25° C./60% for 12 hr

CC#CCC(C)[C@H](O)/C=C/[C@@H]1[C@H]2C/C(=C/CCCC(=O)O)C[C@H]2C[C@H]1O (stereo partly drawn) [Iloprost, (5E)-5-[(3aS,4R,5R,6aS)-5-hydroxy-4-[(E,3S)-3-hydroxy-4-methyloct-1-en-6-ynyl]-3,3a,4,5,6,6a-hexahydro-1H-pentalen-2-ylidene]pentanoic acid]
TEAE abdominal pain ([1]; human, in vivo, 5 days): 4 [23.5%] subjects (%) | TEAE flushing ([1]; human, in vivo, 5 days): 5 [29.4%] subjects (%) | TEAE headache ([1]; human, in vivo, 5 days): 16 [94.1%] subjects (%) | TEAE nausea ([1]; human, in vivo, 5 days): 11 [64.7%] subjects (%) | subjects who experienced TEAEs considered severe by the Investigator ([1]; human, in vivo, 5 days): Two (11.8%) subjects (%) | subjects who experienced a TEAE ([1]; human, in vivo, 5 days): 17 (100.0%) subjects (%) | TEAEs related to vital signs, physical examination findings, or ECGs ([1]; in vivo): no TEAEs | bradycardia or tachycardia ([1]; in vivo): no bradycardia or tachycardia | changes in chemistry or hematology laboratory values ([1]; in vivo): no clinically significant changes | hypertensive or hypotensive events ([1]; in vivo): no hypertensive or hypotensive events | deaths, SAEs, AESIs, TEAEs leading to study drug discontinuation ([1]; whole study): no deaths, SAEs, AESIs, or TEAEs leading to study drug discontinuation | % Initial [2, 3]: 100.8% and 99.4% and 100.2% and 99.7% and 100.5% and 100.4% | Iloprost (%) [2, 3]: 95.0% and 94.2% and 94.8% and 94.7% and 95.3% | % Initial [2, 4]: 101.0% and 99.5% and 99.6% and 100.3% and 101.3% and 101.9% | Iloprost (%) [2, 4]: 95.2% and 94.3% and 94.7% and 95.5% and 96.7% | % Initial [2, 5]: 101.6% and 100.2% and 100.5% and 99.3% and 101.7% and 100.6% | Iloprost (%) [2, 5]: 95.7% and 95.0% and 95.1% and 93.7% and 95.9% and 95.4% | % Initial [2, 6]: 100.0% and 101.9% and 101.1% and 99.9% | Iloprost (%) [2, 6]: 94.3% and 94.8% and 94.6% and 96.2% and 95.3% | % Initial [2, 7]: 102.2% and 101.4% and 102.0% and 100.1% and 98.9% and 100.5% | Iloprost (%) [2, 7]: 97.0% and 95.5% and 96.7% and 94.7% and 93.4% and 94.8% | Iloprost (%) ([2]; Table 8A, IV bag, 1.0 mL 100 μg/mL product + 99 mL 0.9% NaCl, Initial, Samples 1-6): 94.2% and 94.8% and 94.6% and 94.4% and 94.3% and 94.9% | % Initial [2, 8]: 100% and 104% and 101% and 103% | Iloprost [2, 8]: 973.6 ng/mL and 1010 ng/mL and 979.5 ng/mL and 1003 ng/mL and 977.2 ng/mL and 1007 ng/mL | % Initial [2, 9]: 103% and 104% and 105% and 99% | Iloprost [2, 9]: 1004 ng/mL and 1009 ng/mL and 978.2 ng/mL and 1042 ng/mL and 975.1 ng/mL and 1005 ng/mL | % Initial [2, 10]: 103% and 101% and 100% | Iloprost [2, 10]: 1004 ng/mL and 995.2 ng/mL and 968 ng/mL and 1001 ng/mL and 984.6 ng/mL and 977.3 ng/mL | % Initial [2, 11]: 104% and 105% and 103% and 102% and 101% and 100% | Iloprost [2, 11]: 1013 ng/mL and 1017 ng/mL and 970.9 ng/mL and 1014 ng/mL and 994.1 ng/mL and 971.5 ng/mL | Iloprost ([2]; Table 8B, Batch 1, IV bag, Initial (T = 0), Preparations 1-6): 975.8 ng/mL and 977.5 ng/mL and 968.7 ng/mL and 942.8 ng/mL and 994.1 ng/mL and 981.9 ng/mL | % Initial [2, 12]: 102% and 101% and 100% and 96% | Iloprost [2, 12]: 995.8 ng/mL and 1002 ng/mL and 994.6 ng/mL and 1004 ng/mL and 998.8 ng/mL and 983.3 ng/mL | % Initial [2, 13]: 101% and 99% and 100% and 98% | Iloprost [2, 13]: 993.3 ng/mL and 984.1 ng/mL (2×) and 989.6 ng/mL and 994.8 ng/mL and 1005 ng/mL | % Initial [2, 14]: 101% and 99% and 104% and 100% | Iloprost [2, 14]: 993.7 ng/mL and 984.2 ng/mL and 994.4 ng/mL and 1032 ng/mL and 1005 ng/mL and 1015 ng/mL | % Initial [2, 15]: 102% and 99% and 101% and 100% | Iloprost [2, 15]: 1002 ng/mL and 979.5 ng/mL and 989 ng/mL and 1005 ng/mL and 996.3 ng/mL and 1027 ng/mL | Iloprost ([2]; Table 8C, Batch 2, IV bag, Initial (T = 0), Preparations 1-6): 1021 ng/mL and 980.9 ng/mL and 990.7 ng/mL and 980.7 ng/mL and 994.4 ng/mL and 1001 ng/mL | % Initial [2, 16]: 104% and 98% and 101% and 100% and 99% | Iloprost [2, 16]: 1050 ng/mL and 931.9 ng/mL and 1024 ng/mL (2×) and 1020 ng/mL and 1001 ng/mL | % Initial [2, 17]: 99% and 100% and 98% and 102% and 101% | Iloprost [2, 17]: 1002 ng/mL and 957.3 ng/mL and 993.8 ng/mL and 1040 ng/mL and 1025 ng/mL and 1011 ng/mL | % Initial [2, 18]: 97% and 99% and 100% and 101% | Iloprost [2, 18]: 976.5 ng/mL and 943.2 ng/mL and 1015 ng/mL and 1031 ng/mL and 1010 ng/mL and 982.7 ng/mL | Iloprost ([2]; Table 8D, Batch 1, IV bag, Initial (T = 0)): 996.6 ng/mL and 1007 ng/mL and 953.6 ng/mL and 1015 ng/mL and 1020 ng/mL and 1036 ng/mL | % Initial [2, 19]: 102% and 100% and 101% | Iloprost [2, 19]: 1026 ng/mL and 1009 ng/mL and 1025 ng/mL and 1030 ng/mL and 1011 ng/mL and 987.4 ng/mL | % Initial [2, 20]: 101% and 99% and 100% and 98% | Iloprost [2, 20]: 1023 ng/mL and 973.1 ng/mL and 1013 ng/mL and 1012 ng/mL and 996.7 ng/mL and 970.8 ng/mL | % Initial [2, 21]: 101% and 98% and 102% and 100% | Iloprost [2, 21]: 1022 ng/mL and 963.3 ng/mL and 1001 ng/mL | Iloprost ([2]; Table 8E, Batch 2, IV bag, Initial (T = 0)): 988.4 ng/mL | % Initial ([2]; Table 8F (5° C. for 8 days to 25° C./60% RH), Batch 1, time point 5° C. for 5 days [sic]): 103% and 99% and 102% and 100% | % Initial ([2]; Table 8F, Batch 1, 5° C. for 8 days, 25° C./60% RH for 8 hr): 99% and 98% and 107% and 100% | % Initial ([2]; Table 8F, Batch 1, 5° C. for 8 days, 25° C./60% RH for 12 hr): 101% and 100% and 99% | % Initial ([2]; Table 8G (5° C. for 8 days to 25° C./60% RH), Batch 2, time point 5° C. for 5 days [sic]): 99% and 97% and 102%

From patent US12409184B2, “Iloprost compositions and formulations thereof” (BTG INTERNATIONAL INC., priority 2020, dated 2025)
